From BindingDB's records for patent WO2025049746 (Eikon Therapeutics, 2025)

Key:
[1] = biological target: Bifunctional 3'-5' exonuclease/ATP-dependent helicase WRN (Homo sapiens, UniProt Q14191); experiment: ADP-Glo Kinase Assay
Description: ATPase activity was measured using the ADP-Glo Kinase Assay following the manufacturers recommended protocol.

[2] = biological target: T1, Bifunctional 3'-5' exonuclease/ATP-dependent helicase WRN [480-1251] (UniProt Q14191); experiment: Biochemical Activity Assays
T1 construct: 480-1251
T1 sequence (Q14191 480-1251): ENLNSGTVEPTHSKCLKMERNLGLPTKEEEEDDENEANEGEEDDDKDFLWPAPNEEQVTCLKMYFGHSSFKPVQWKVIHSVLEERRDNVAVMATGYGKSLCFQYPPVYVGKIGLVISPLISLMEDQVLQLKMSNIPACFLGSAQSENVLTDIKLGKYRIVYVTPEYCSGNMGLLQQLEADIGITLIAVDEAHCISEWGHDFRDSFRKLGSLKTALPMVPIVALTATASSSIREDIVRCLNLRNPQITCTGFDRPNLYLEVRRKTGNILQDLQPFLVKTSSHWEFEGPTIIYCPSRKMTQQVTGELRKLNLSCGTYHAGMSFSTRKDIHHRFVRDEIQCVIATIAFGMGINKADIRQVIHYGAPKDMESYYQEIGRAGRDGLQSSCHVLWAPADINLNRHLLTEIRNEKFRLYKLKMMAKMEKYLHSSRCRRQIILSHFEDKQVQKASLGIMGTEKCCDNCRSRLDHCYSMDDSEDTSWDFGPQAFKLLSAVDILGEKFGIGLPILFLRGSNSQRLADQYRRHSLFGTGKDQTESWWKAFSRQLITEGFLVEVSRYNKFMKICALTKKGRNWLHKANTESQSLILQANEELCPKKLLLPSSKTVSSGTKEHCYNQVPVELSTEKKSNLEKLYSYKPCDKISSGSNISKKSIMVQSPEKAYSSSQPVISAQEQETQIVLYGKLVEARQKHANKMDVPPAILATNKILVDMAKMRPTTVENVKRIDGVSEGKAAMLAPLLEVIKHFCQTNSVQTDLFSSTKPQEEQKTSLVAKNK

Chain of Bifunctional 3'-5' exonuclease/ATP-dependent helicase WRN (Q14191 whole entry): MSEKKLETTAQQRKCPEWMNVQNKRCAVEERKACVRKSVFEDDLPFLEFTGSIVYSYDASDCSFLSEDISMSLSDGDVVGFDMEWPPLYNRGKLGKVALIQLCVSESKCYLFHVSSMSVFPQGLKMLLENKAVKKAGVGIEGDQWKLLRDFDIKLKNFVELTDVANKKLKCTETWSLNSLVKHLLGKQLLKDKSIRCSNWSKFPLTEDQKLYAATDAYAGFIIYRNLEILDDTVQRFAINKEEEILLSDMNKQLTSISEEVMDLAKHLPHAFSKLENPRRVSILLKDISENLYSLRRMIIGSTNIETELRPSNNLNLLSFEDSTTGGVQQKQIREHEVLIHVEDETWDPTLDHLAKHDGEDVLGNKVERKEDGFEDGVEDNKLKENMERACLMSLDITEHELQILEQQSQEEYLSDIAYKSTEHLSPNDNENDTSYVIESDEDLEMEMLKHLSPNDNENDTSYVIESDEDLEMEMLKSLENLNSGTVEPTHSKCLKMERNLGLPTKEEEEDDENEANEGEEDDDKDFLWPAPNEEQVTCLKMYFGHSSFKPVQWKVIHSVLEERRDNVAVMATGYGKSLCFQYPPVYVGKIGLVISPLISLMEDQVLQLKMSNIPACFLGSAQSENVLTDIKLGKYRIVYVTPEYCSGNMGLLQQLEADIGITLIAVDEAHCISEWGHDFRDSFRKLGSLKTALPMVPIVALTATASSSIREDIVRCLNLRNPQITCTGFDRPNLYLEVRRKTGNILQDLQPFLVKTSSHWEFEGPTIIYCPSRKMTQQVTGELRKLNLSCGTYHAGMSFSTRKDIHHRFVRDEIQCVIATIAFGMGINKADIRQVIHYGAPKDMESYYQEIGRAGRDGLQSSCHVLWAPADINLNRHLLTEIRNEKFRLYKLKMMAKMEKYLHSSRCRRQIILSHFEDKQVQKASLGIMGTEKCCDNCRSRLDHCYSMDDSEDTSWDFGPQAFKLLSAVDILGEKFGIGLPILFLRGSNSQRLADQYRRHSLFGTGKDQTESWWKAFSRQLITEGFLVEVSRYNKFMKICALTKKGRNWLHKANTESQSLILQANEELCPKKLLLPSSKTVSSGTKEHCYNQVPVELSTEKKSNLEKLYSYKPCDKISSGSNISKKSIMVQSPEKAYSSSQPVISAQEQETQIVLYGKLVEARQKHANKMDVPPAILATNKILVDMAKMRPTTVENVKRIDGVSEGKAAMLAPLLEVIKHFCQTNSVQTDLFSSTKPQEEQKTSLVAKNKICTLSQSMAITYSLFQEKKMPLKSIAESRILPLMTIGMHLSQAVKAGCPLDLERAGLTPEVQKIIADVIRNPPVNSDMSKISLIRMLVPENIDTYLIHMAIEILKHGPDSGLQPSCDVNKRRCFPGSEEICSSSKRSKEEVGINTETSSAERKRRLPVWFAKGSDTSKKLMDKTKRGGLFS

| SMILES | IC50 [1] | IC50 [2] |
| --- | --- | --- |
| CCc1c(N2CCN(C(=O)c3ncnc(C)c3O)CC2)c(=O)n2nc(-c3cnc4nn(C)cc4c3)nc2n1CC(=O)Nc1ccc(C(F)(F)F)cc1Cl [WO2025049746, Example 313] | 35 nM | 38 nM |
| CCc1c(N2CCN(C(=O)c3ncnc(C)c3O)CC2)c(=O)n2nc(-c3ccc4c(c3)COC4)nc2n1CC(=O)Nc1ccc(Cl)c(OC(F)F)c1Cl [WO2025049746, Example 407] | 30 nM | 25 nM |
| CCc1c(N2CCN(C(=O)c3ncnc(C)c3O)CC2)c(=O)n2nc(-c3ccc4nn(C)cc4c3C)nc2n1CC(=O)Nc1ccc(C(F)(F)F)cc1Cl [WO2025049746, Example 295] | 34 nM | 35 nM |
| CCc1c(N2CCN(C(=O)c3ncnc(C)c3O)CC2)c(=O)n2nc(N3CCCn4nccc43)nc2n1CC(=O)Nc1ccc(C(F)(F)F)cc1Cl [WO2025049746, Example 31] | 45.2 nM | 28.9 nM |
| CCc1c(N2CCN(C(=O)c3ncnc(C)c3O)CC2)c(=O)n2nc(-c3cccc4c3OCCO4)nc2n1CC(=O)Nc1ccc(SC(F)(F)F)cc1 [WO2025049746, Example 411] | 420 nM | 232 nM |
| C=C(c1ccc(NC(=O)Cn2c(CC)c(N3CCN(C(=O)c4ncnc(C)c4O)CC3)c(=O)n3nc(-c4ccc5c(c4)COC5)nc23)c(Cl)c1)C(F)(F)F [WO2025049746, Example 419] | 54 nM | 39 nM |
| CCc1c(N2CCN(C(=O)c3ncnc(C)c3O)CC2)c(=O)n2nc(-c3ccc4ncn(C)c4c3)nc2n1CC(=O)Nc1ccc(C(F)(F)F)cc1Cl [WO2025049746, Example 236] | 25 nM | 25 nM |
| CCc1c(N2CCN(C(=O)c3ncnc(C)c3O)CC2)c(=O)n2nc(-c3cccc4c3COCC4)nc2n1CC(=O)Nc1c(Cl)cc(C(F)(F)F)c2c1CC2 [WO2025049746, Example 390] | 84 nM | 52 nM |
| CCc1c(N2CCN(C(=O)c3ncnc(C)c3O)CC2)c(=O)n2nc(-c3ccc4c(c3)CC[C@@H]4OC)nc2n1CC(=O)Nc1ccc(C(F)(F)F)cc1Cl [WO2025049746, Example 207] | 39 nM | 33 nM |
| CCc1c(N2CCN(C(=O)c3ncnc(C)c3O)CC2)c(=O)n2nc(-c3ccc4c(c3)CCOC4)nc2n1C(F)(F)C(=O)Nc1ccc(C(F)(F)F)cc1Cl [WO2025049746, Example 402] | 32 nM | 26 nM |
| CCc1c(N2CCN(C(=O)c3ccccc3NC(=O)c3ccn[nH]3)CC2)c(=O)n2nc(C3=CCOCC3)nc2n1CC(=O)Nc1ccc(C(F)(F)F)cc1Cl [WO2025049746, Example 40] | 125 nM | 62.2 nM |
| CCc1c(N2CCN(C(=O)c3ncnc(C)c3O)CC2)c(=O)n2nc(-c3ccc4nc(C)cn4c3)nc2n1CC(=O)Nc1ccc(C(F)(F)F)cc1Cl [WO2025049746, Example 255] | 23 nM | 24 nM |
| CCc1c(N2CCN(C(=O)c3cncc4cc[nH]c34)CC2)c(=O)n2nc(C3=CCOCC3)nc2n1CC(=O)Nc1ccc(C(F)(F)F)cc1Cl [WO2025049746, Example 47] | 31.8 nM | 23.9 nM |
| Cc1ncnc(C(=O)N2CCN(c3c4n(c5nc(-c6ccc7c(c6)COC7(C)C)nn5c3=O)[C@@H](C(=O)Nc3ccc(C(F)(F)F)cc3Cl)C[C@H]4C)CC2)c1O [WO2025049746, Example 470] | 32.4 nM | 34.6 nM |
